The data set concerns CCRIS mutagenicity, Ames/micronucleus/aberration tests. Kind of data set: CCRIS mutagenicity studies.
Setting [1] is: Test System: AMES SALMONELLA TYPHIMURIUM, Strain/Indicator: TA98, Metabolic Activation: NONE, Method: STANDARD PLATE.
[2] abbreviates: Test System: AMES SALMONELLA TYPHIMURIUM, Strain/Indicator: TA100, Metabolic Activation: NONE, Method: STANDARD PLATE.
Setting [3] is: Test System: AMES SALMONELLA TYPHIMURIUM, Strain/Indicator: TA1535, Metabolic Activation: NONE, Method: STANDARD PLATE.
Setting [4] is: Test System: AMES SALMONELLA TYPHIMURIUM, Strain/Indicator: TA1537, Metabolic Activation: NONE, Method: STANDARD PLATE.
[5] abbreviates: Test System: AMES SALMONELLA TYPHIMURIUM, Strain/Indicator: TA98, Metabolic Activation: RAT, LIVER, S-9, AROCLOR 1254, Method: STANDARD PLATE.
The mark [6] stands for this setting: Test System: AMES SALMONELLA TYPHIMURIUM, Strain/Indicator: TA100, Metabolic Activation: RAT, LIVER, S-9, AROCLOR 1254, Method: STANDARD PLATE.
Setting [7] is: Test System: AMES SALMONELLA TYPHIMURIUM, Strain/Indicator: TA1535, Metabolic Activation: RAT, LIVER, S-9, AROCLOR 1254, Method: STANDARD PLATE.
[8] abbreviates: Test System: AMES SALMONELLA TYPHIMURIUM, Strain/Indicator: TA1537, Metabolic Activation: RAT, LIVER, S-9, AROCLOR 1254, Method: STANDARD PLATE.
[9] abbreviates: Test System: AMES SALMONELLA TYPHIMURIUM, Strain/Indicator: TA1538, Metabolic Activation: RAT, LIVER, S-9, AROCLOR 1254, Method: STANDARD PLATE.

Seven compounds from PubChem BioAssay AID1259407 (Chemical Carcinogenesis Research Information System (CCRIS), 2018) can be followed below.

SMILES strings stand for the structures. Activity calls are given as the source filed them. How the calls were made is not given here.

With `Cc1ccc(N)cc1O`, the mutagenic call runs as follows: (Test System: AMES SALMONELLA TYPHIMURIUM, Strain/Indicator: TA97, Metabolic Activation: HAMSTER, LIVER, S-9, AROCLOR 1254 (10%), Method: PREINCUBATION) “active; positive”; (Test System: AMES SALMONELLA TYPHIMURIUM, Strain/Indicator: TA97, Metabolic Activation: NONE, Method: PREINCUBATION) “inactive; negative”; (Test System: AMES SALMONELLA TYPHIMURIUM, Strain/Indicator: TA97, Metabolic Activation: RAT, LIVER, S-9, AROCLOR 1254 (10%), Method: PREINCUBATION) “active; positive”; (Test System: AMES SALMONELLA TYPHIMURIUM, Strain/Indicator: TA98, Metabolic Activation: HAMSTER LIVER S-9, AROCLOR 1254, Method: STANDARD PLATE) “inactive; negative”; (Test System: AMES SALMONELLA TYPHIMURIUM, Strain/Indicator: TA98, Metabolic Activation: HAMSTER, LIVER, S-9, AROCLOR 1254 (10%), Method: PREINCUBATION) “active; positive”; (Test System: AMES SALMONELLA TYPHIMURIUM, Strain/Indicator: TA98, Metabolic Activation: NONE, Method: PREINCUBATION) “inactive; negative”. For the same compound, the mutagenic call by setting is: under setting [1], “inactive; negative”; (Test System: AMES SALMONELLA TYPHIMURIUM, Strain/Indicator: TA98, Metabolic Activation: RAT LIVER S-9, AROCLOR 1254, Method: STANDARD PLATE) “inactive; negative”; (Test System: AMES SALMONELLA TYPHIMURIUM, Strain/Indicator: TA98, Metabolic Activation: RAT, LIVER, S-9, AROCLOR 1254 (10%), Method: PREINCUBATION) “active; positive”; (Test System: AMES SALMONELLA TYPHIMURIUM, Strain/Indicator: TA100, Metabolic Activation: HAMSTER LIVER S-9, AROCLOR 1254, Method: STANDARD PLATE) “inactive; negative”; (Test System: AMES SALMONELLA TYPHIMURIUM, Strain/Indicator: TA100, Metabolic Activation: HAMSTER, LIVER, S-9, AROCLOR 1254 (10%), Method: PREINCUBATION) “active; positive”; (Test System: AMES SALMONELLA TYPHIMURIUM, Strain/Indicator: TA100, Metabolic Activation: NONE, Method: PREINCUBATION) “inactive; negative”. Further, the mutagenic call is “inactive; negative” under setting [2]; “inactive; negative” (Test System: AMES SALMONELLA TYPHIMURIUM, Strain/Indicator: TA100, Metabolic Activation: RAT LIVER S-9, AROCLOR 1254, Method: STANDARD PLATE); “active; positive” (Test System: AMES SALMONELLA TYPHIMURIUM, Strain/Indicator: TA100, Metabolic Activation: RAT, LIVER, S-9, AROCLOR 1254 (10%), Method: PREINCUBATION); “inactive; negative” (Test System: AMES SALMONELLA TYPHIMURIUM, Strain/Indicator: TA102, Metabolic Activation: HAMSTER LIVER S-9, AROCLOR 1254, Method: STANDARD PLATE); “inactive; negative” (Test System: AMES SALMONELLA TYPHIMURIUM, Strain/Indicator: TA102, Metabolic Activation: NONE, Method: STANDARD PLATE); “inactive; negative” (Test System: AMES SALMONELLA TYPHIMURIUM, Strain/Indicator: TA102, Metabolic Activation: RAT LIVER S-9, AROCLOR 1254, Method: STANDARD PLATE). For the same compound, the mutagenic call is “inactive; negative” (Test System: AMES SALMONELLA TYPHIMURIUM, Strain/Indicator: TA1535, Metabolic Activation: HAMSTER LIVER S-9, AROCLOR 1254, Method: STANDARD PLATE); “inactive; negative” (Test System: AMES SALMONELLA TYPHIMURIUM, Strain/Indicator: TA1535, Metabolic Activation: HAMSTER, LIVER, S-9, AROCLOR 1254 (10%), Method: PREINCUBATION); “inactive; negative” (Test System: AMES SALMONELLA TYPHIMURIUM, Strain/Indicator: TA1535, Metabolic Activation: NONE, Method: PREINCUBATION); “inactive; negative” under setting [3]; “inactive; negative” (Test System: AMES SALMONELLA TYPHIMURIUM, Strain/Indicator: TA1535, Metabolic Activation: RAT LIVER S-9, AROCLOR 1254, Method: STANDARD PLATE); “inactive; negative” (Test System: AMES SALMONELLA TYPHIMURIUM, Strain/Indicator: TA1535, Metabolic Activation: RAT, LIVER, S-9, AROCLOR 1254 (10%), Method: PREINCUBATION). For the same compound, the mutagenic call reads like this: (Test System: AMES SALMONELLA TYPHIMURIUM, Strain/Indicator: TA1537, Metabolic Activation: HAMSTER LIVER S-9, AROCLOR 1254, Method: STANDARD PLATE) “inactive; negative”; under setting [4], “inactive; negative”; (Test System: AMES SALMONELLA TYPHIMURIUM, Strain/Indicator: TA1537, Metabolic Activation: RAT LIVER S-9, AROCLOR 1254, Method: STANDARD PLATE) “inactive; negative”; (Test System: Mouse lymphoma, Strain/Indicator: L5178Y (tk+/tk-), Metabolic Activation: None, Method: Suspension/plate) “active; positive”; (Test System: Mouse lymphoma, Strain/Indicator: L5178Y (tk+/tk-), Metabolic Activation: Rat, Liver, S-9, Aroclor 1254, Method: Suspension/plate) “inactive; negative”.

As for `O=C(C(Cl)Cl)C(Cl)Cl`, the mutagenic call is, setting by setting: under setting [1], “active; positive”; under setting [2], “active; positive”.

Take `O=C(Cl)CCl`: the mutagenic call was “inactive; negative” (End Point: IN VITRO CHROMOSOMAL ABERRATIONS, Test System: CHINESE HAMSTER LUNG (CHL), Metabolic Activation: NONE) and “inactive; negative” (End Point: IN VITRO CHROMOSOMAL ABERRATIONS, Test System: CHINESE HAMSTER LUNG (CHL), Metabolic Activation: RAT, LIVER, S-9, KC-400).

On to `CNC(=O)ON`, for which the mutagenic call runs as follows: under setting [1], “active; positive”; (Test System: AMES SALMONELLA TYPHIMURIUM, Strain/Indicator: TA98, Metabolic Activation: RAT, LIVER, S-9, Method: STANDARD PLATE) “active; positive”; under setting [2], “active; positive”.

As for `COc1ccc(NC(=O)c2csc([N+](=O)[O-])c2)cc1`, the mutagenic call under setting [1] is “active; positive” and the mutagenic call under setting [2] was “active; positive”.

As to `C=C(C)C(=O)OCCCCCOC(=O)C(=C)C`, the mutagenic call by setting is: under setting [1], “inactive; negative”; under setting [5], “inactive; negative”; (Test System: AMES SALMONELLA TYPHIMURIUM, Strain/Indicator: TA98, Metabolic Activation: RAT, LIVER, S-9, SODIUM PHENOBARBITAL, Method: STANDARD PLATE) “inactive; negative”; under setting [2], “inactive; negative”; under setting [6], “inactive; negative”; (Test System: AMES SALMONELLA TYPHIMURIUM, Strain/Indicator: TA100, Metabolic Activation: RAT, LIVER, S-9, SODIUM PHENOBARBITAL, Method: STANDARD PLATE) “inactive; negative”. Further, the mutagenic call by setting is: under setting [3], “inactive; negative”; under setting [7], “inactive; negative”; (Test System: AMES SALMONELLA TYPHIMURIUM, Strain/Indicator: TA1535, Metabolic Activation: RAT, LIVER, S-9, SODIUM PHENOBARBITAL, Method: STANDARD PLATE) “inactive; negative”; under setting [4], “inactive; negative”; under setting [8], “inactive; negative”; (Test System: AMES SALMONELLA TYPHIMURIUM, Strain/Indicator: TA1537, Metabolic Activation: RAT, LIVER, S-9, SODIUM PHENOBARBITAL, Method: STANDARD PLATE) “inactive; negative”. Further, the mutagenic call (Test System: AMES SALMONELLA TYPHIMURIUM, Strain/Indicator: TA1538, Metabolic Activation: NONE, Method: STANDARD PLATE) is “inactive; negative”; the mutagenic call under setting [9] is “inactive; negative”; the mutagenic call (Test System: AMES SALMONELLA TYPHIMURIUM, Strain/Indicator: TA1538, Metabolic Activation: RAT, LIVER, S-9, SODIUM PHENOBARBITAL, Method: STANDARD PLATE) is “inactive; negative”.

`Nc1ccc(O)c2c1C(=O)c1ccccc1C2=O`: the mutagenic call is “inactive; negative” under setting [5]; “inactive; negative” under setting [2]; “inactive; negative” under setting [6]; “inactive; negative” under setting [3]; “inactive; negative” under setting [7]; “active; positive” under setting [4]. Further, the mutagenic call is “active; positive” under setting [8] and “inactive; negative” under setting [9].
